Measured values from patent US12729377B2, “RNAi agents and compositions for inhibiting expression of angiopoietin-like 3 (ANGPTL3), and methods of use” (Arrowhead Pharmaceuticals, Inc., priority 2017, dated 2026).
In the oligonucleotide strings, read from the 5' end, every base follows the letter of its sugar. An asterisk marks phosphorothioate; unmarked linkages are phosphodiester. Other units and linkages are bracketed, terminal groups are in braces. A string of capitals states the bases alone. {NAG37} = tridentate N-acetyl-galactosamine targeting ligand, structure (NAG37)s; [invAb] = inverted abasic unit; m = 2'-O-methyl; f = 2'-fluoro

Columns and labels:
ANGPTL3 gene [1] = assay: Example 4: serum HDL in mice; format: in vivo, C57bl/6 mice
Experimental: (§1) To assess the in vivo activity of ANGPTL3 RNAi agents that are designed to target additional positions on the ANGPTL3 gene, six- to eight-week-old female C57bl/6 mice were used. Pre-dose serum samples were taken at day −1 after a four hour fast. At day 1, each mouse was given a single subcutaneous administration of 200 μl containing either 1 mg/kg (mpk) or 0.5 mg/kg (mpk) of an ANGPTL3 RNAi agent in D5W (dextrose in 5% water), or control (D5W) with no RNAi agent, according to the dosing groups recited in Table 17.
(§2) Each of the RNAi agents included a modified sequence and an N-acetyl-galactosamine-containing targeting ligand conjugated to the 5′ terminal end of the sense strand. (See Tables 3, 4, and 5 for modified sequences and targeting ligand structures). The injections were performed between the skin and muscle (i.e. subcutaneous injections) into the loose skin over the neck and shoulder area. Three (3) mice in each group were tested (n=3). Serum was collected on days 8, 15, 22, 29, and day 43 (Groups 1-3, 9, and 11-13 only). Mice were fasted for four hours prior to each collection. ANGPTL3 protein levels in serum were measured by ELISA assay (R&D Systems), according to the manufacturer's recommendations. Triglycerides, high-density lipoprotein (HDL), and total cholesterol in serum were measured on a Cobas® Integra 400 (Roche Diagnostics), according to the manufacturer's recommendations.
(§3) The ANGPTL3 protein levels, triglyceride levels, HDL levels, and total cholesterol levels for each animal were normalized. For normalization, the level of ANGPTL3 protein, triglyceride, HDL, and total cholesterol, respectively, for each animal at a time point, was divided by the pre-treatment level of expression in that animal (in this case at day −1) to determine the ratio of expression “normalized to pre-treatment.” Expression at a specific time point was then normalized to the D5W control group by dividing the “normalized to pre-treatment” ratio for an individual animal by the mean “normalized to pretreatment” ratio of all mice in the D5W control group.

ANGPTL3 gene [2] = assay: Example 4: serum LDL in mice; format: in vivo, C57bl/6 mice; conditions: serum, n=3
Experimental: as §1, §2, §3

ANGPTL3 gene [3] = assay: Example 4: serum triglycerides in mice; format: in vivo
Experimental: as §1, §2, §3

ANGPTL3 gene [4] = assay: Example 7: serum LDL in mice; format: in vivo; design: key: ratio: (level/pre-treatment day -1 level) ÷ mean of D5W control group; conditions: 0.5 mg/kg single SC injection day 1, female C57bl/6 mice, n=3, ratio to D5W control
Outline: (§4)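 Female C57bl/6 mice (6–8 weeks, n=3) received a single subcutaneous dose of 0.5 mg/kg GalNAc-conjugated RNAi agent or D5W vehicle. Serum was taken after a 4 h fast at day −1 and days 8, 15, 22 and 29. ANGPTL3 was measured by ELISA and lipids by clinical analyzer, each normalised to the animal's pre-dose level and then to the D5W group mean.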

ANGPTL3 gene [5] = assay: Example 7: serum total cholesterol in mice; format: in vivo, C57bl/6 mice; design: key: ratio: (level/pre-treatment day -1 level) ÷ mean of D5W control group
Outline: as §4

ANGPTL3 gene [6] = assay: Example 7: serum triglycerides in mice; format: in vivo, C57bl/6 mice; design: key: ratio: (level/pre-treatment day -1 level) ÷ mean of D5W control group
Outline: as §4

ANGPTL3 protein = assay: Example 4: serum ANGPTL3 protein by ELISA in mice; format: in vivo, C57bl/6 mice; conditions: serum, female C57bl/6 mice
Experimental: as §1, §2, §3

[7] = Day 8, 0.5 mg/kg single SC injection on day 1, n=3
[8] = Day 15, 0.5 mg/kg single SC injection on day 1, n=3
[9] = Day 22, 0.5 mg/kg single SC injection on day 1, n=3
[10] = Day 29, 0.5 mg/kg single SC injection on day 1, n=3

AD05308: RNAi agent duplex: antisense AM07003-AS, sense AM07002-SS (chain 1 mU*fG*mU*fUmGfAmAfUmUfAmAfUmGfUmCfCmAfUmGfG*mA; chain 2 {NAG37}*[invAb]*mUmCmCmAmUmGmGmAfCfAfUmUmAmAmUmUmCmAmAmCmA*[invAb])
Avg HDL, normalized to pre-treatment and control (ANGPTL3 gene [1]; [7]): 1.007
Avg HDL, normalized to pre-treatment and control (ANGPTL3 gene [1]; Day 8, 1.0 mg/kg single SC injection on day 1, n=3): 0.904
Avg HDL, normalized to pre-treatment and control (ANGPTL3 gene [1]; [8]): 0.770
Avg HDL, normalized to pre-treatment and control (ANGPTL3 gene [1]; Day 15, 1.0 mg/kg single SC injection on day 1, n=3): 0.801
Avg HDL, normalized to pre-treatment and control (ANGPTL3 gene [1]; [9]): 0.921
Avg HDL, normalized to pre-treatment and control (ANGPTL3 gene [1]; Day 22, 1.0 mg/kg single SC injection on day 1, n=3): 0.728
Avg HDL, normalized to pre-treatment and control (ANGPTL3 gene [1]; [10]): 0.934
Avg HDL, normalized to pre-treatment and control (ANGPTL3 gene [1]; Day 29, 1.0 mg/kg single SC injection on day 1, n=3): 0.824
Avg HDL, normalized to pre-treatment and control (ANGPTL3 gene [1]; Day 43, 0.5 mg/kg single SC injection on day 1, n=3): 1.101
Avg HDL, normalized to pre-treatment and control (ANGPTL3 gene [1]; Day 43, 1.0 mg/kg single SC injection on day 1, n=3): 1.096
Avg LDL, normalized to pre-treatment and control (ANGPTL3 gene [2]; Day 8, 0.5 mg/kg single SC injection on day 1): 0.965
Avg LDL, normalized to pre-treatment and control (ANGPTL3 gene [2]; Day 8, 1.0 mg/kg single SC injection on day 1): 0.842
Avg LDL, normalized to pre-treatment and control (ANGPTL3 gene [2]; Day 15, 0.5 mg/kg single SC injection on day 1): 0.830
Avg LDL, normalized to pre-treatment and control (ANGPTL3 gene [2]; Day 15, 1.0 mg/kg single SC injection on day 1): 0.688
Avg LDL, normalized to pre-treatment and control (ANGPTL3 gene [2]; Day 22, 1.0 mg/kg single SC injection on day 1): 0.829
Avg LDL, normalized to pre-treatment and control (ANGPTL3 gene [2]; Day 29, 1.0 mg/kg single SC injection on day 1): 0.897
Avg LDL, normalized to pre-treatment and control (ANGPTL3 gene [2]; Day 43, 1.0 mg/kg single SC injection on day 1): 1.033
Avg TG (Average Triglycerides Normalized to Pre-Treatment and Control) (ANGPTL3 gene [3]; Day 8, 0.5 mg/kg single subcutaneous dose on day 1, female C57bl/6 mice): 1.330
Avg TG (Average Triglycerides Normalized to Pre-Treatment and Control) (ANGPTL3 gene [3]; Day 8, 1.0 mg/kg single subcutaneous dose on day 1, female C57bl/6 mice): 0.749
Avg TG (Average Triglycerides Normalized to Pre-Treatment and Control) (ANGPTL3 gene [3]; Day 15, 0.5 mg/kg single subcutaneous dose on day 1, female C57bl/6 mice): 1.598
Avg TG (Average Triglycerides Normalized to Pre-Treatment and Control) (ANGPTL3 gene [3]; Day 15, 1.0 mg/kg single subcutaneous dose on day 1, female C57bl/6 mice): 1.164
Avg TG (Average Triglycerides Normalized to Pre-Treatment and Control) (ANGPTL3 gene [3]; Day 22, 0.5 mg/kg single subcutaneous dose on day 1, female C57bl/6 mice): 1.732
Avg TG (Average Triglycerides Normalized to Pre-Treatment and Control) (ANGPTL3 gene [3]; Day 22, 1.0 mg/kg single subcutaneous dose on day 1, female C57bl/6 mice): 1.152
Avg TG (Average Triglycerides Normalized to Pre-Treatment and Control) (ANGPTL3 gene [3]; Day 29, 0.5 mg/kg single subcutaneous dose on day 1, female C57bl/6 mice): 1.446
Avg TG (Average Triglycerides Normalized to Pre-Treatment and Control) (ANGPTL3 gene [3]; Day 29, 1.0 mg/kg single subcutaneous dose on day 1, female C57bl/6 mice): 1.021
Avg TG (Average Triglycerides Normalized to Pre-Treatment and Control) (ANGPTL3 gene [3]; Day 43, 0.5 mg/kg single subcutaneous dose on day 1, female C57bl/6 mice): 1.547
Avg TG (Average Triglycerides Normalized to Pre-Treatment and Control) (ANGPTL3 gene [3]; Day 43, 1.0 mg/kg single subcutaneous dose on day 1, female C57bl/6 mice): 0.994
Avg LDL, normalized to pre-treatment and control (ANGPTL3 gene [4]; Day 8): 0.710
Avg LDL, normalized to pre-treatment and control (ANGPTL3 gene [4]; Day 15): 0.801
Avg LDL, normalized to pre-treatment and control (ANGPTL3 gene [4]; Day 22): 0.933
Avg LDL, normalized to pre-treatment and control (ANGPTL3 gene [4]; Day 29): 1.047
Avg Total Chol, normalized to pre-treatment and control (ANGPTL3 gene [5]; [7]): 0.756
Avg Total Chol, normalized to pre-treatment and control (ANGPTL3 gene [5]; [8]): 0.814
Avg Total Chol, normalized to pre-treatment and control (ANGPTL3 gene [5]; [9]): 0.896
Avg Total Chol, normalized to pre-treatment and control (ANGPTL3 gene [5]; [10]): 0.927
Avg TG, normalized to pre-treatment and control (ANGPTL3 gene [6]; [7]): 0.836
Avg TG, normalized to pre-treatment and control (ANGPTL3 gene [6]; [8]): 0.755
Avg TG, normalized to pre-treatment and control (ANGPTL3 gene [6]; [9]): 0.839
Avg TG, normalized to pre-treatment and control (ANGPTL3 gene [6]; [10]): 0.705
Avg ANGPTL3 (Average ANGPTL3 Protein Normalized to Pre-Treatment and Control) (ANGPTL3 protein; Day 8, 0.5 mg/kg single subcutaneous dose on day 1): 0.340
Avg ANGPTL3 (Average ANGPTL3 Protein Normalized to Pre-Treatment and Control) (ANGPTL3 protein; Day 8, 1.0 mg/kg single subcutaneous dose on day 1): 0.299
Avg ANGPTL3 (Average ANGPTL3 Protein Normalized to Pre-Treatment and Control) (ANGPTL3 protein; Day 15, 0.5 mg/kg single subcutaneous dose on day 1): 0.310
Avg ANGPTL3 (Average ANGPTL3 Protein Normalized to Pre-Treatment and Control) (ANGPTL3 protein; Day 15, 1.0 mg/kg single subcutaneous dose on day 1): 0.298
Avg ANGPTL3 (Average ANGPTL3 Protein Normalized to Pre-Treatment and Control) (ANGPTL3 protein; Day 22, 0.5 mg/kg single subcutaneous dose on day 1): 0.319
Avg ANGPTL3 (Average ANGPTL3 Protein Normalized to Pre-Treatment and Control) (ANGPTL3 protein; Day 22, 1.0 mg/kg single subcutaneous dose on day 1): 0.252
Avg ANGPTL3 (Average ANGPTL3 Protein Normalized to Pre-Treatment and Control) (ANGPTL3 protein; Day 29, 0.5 mg/kg single subcutaneous dose on day 1): 0.345
Avg ANGPTL3 (Average ANGPTL3 Protein Normalized to Pre-Treatment and Control) (ANGPTL3 protein; Day 29, 1.0 mg/kg single subcutaneous dose on day 1): 0.322
Avg ANGPTL3 (Average ANGPTL3 Protein Normalized to Pre-Treatment and Control) (ANGPTL3 protein; Day 43, 0.5 mg/kg single subcutaneous dose on day 1): 0.582
Avg ANGPTL3 (Average ANGPTL3 Protein Normalized to Pre-Treatment and Control) (ANGPTL3 protein; Day 43, 1.0 mg/kg single subcutaneous dose on day 1): 0.643
